Measurements: US20250170110A1, “LYMPHATIC TARGETED ANTI-COAGULANT FOR THE PREVENTION OF LYMPHATIC THROMBOSIS” (THE TRUSTEES OF THE UNIVERSITY OF PENNSYLVANIA, priority 2022, published 2025)

Tested on: gut lymphatic clotting
Assay: lymphatic clots in mice with induced deletion of lymphatic endothelial thrombomodulin (THBD)
Format: in vivo
Settings: oral warfarin in water, 3 weeks after induction
Text: FIGS. 7A-7C show oral delivery of warfarin prevents lymphatic clots in mouse model of lymphothrombosis. […] P-values are indicated by asterisks as follows: ***p<0.001.
However, dosing with existing antithrombotic drugs will confer systemic anticoagulation, with established significant risks of bleeding throughout the body, including in the gut and brain. […] Therefore, there is a clear need for a functional antithrombotic drug that can be delivered and act preferentially to the gut lymphatics at a therapeutic dose. In addition, the volume of lymphatic fluid in the gut is much less than the volume of blood in the body, which means that a therapeutic dose of drug directly to the gut lymphatics will be massively diluted once it reaches the blood stream to well below therapeutic levels, thereby preventing systemic anticoagulation and inappropriate bleeding.

In the case of `CC(=O)CC(c1ccccc1)c1c(O)c2ccccc2oc1=O` (stereo not shown) [warfarin], the “lymphatic clotting (fibrin positive lymphatic vessels)” value is reported as “prevented lymphatic clotting”.
